Reference: patent US11332620B2, “Solution comprising a dye” (NOURYON CHEMICALS INTERNATIONAL B.V., priority 2018, dated 2022)

Experiment: Dissolution of dye powder in CP/DMSO 80/20 mixture
Type: physicochemical
Details: stirred 24 hours at room temperature

For `CCN(CCO)c1ccc(N=Nc2ccc([N+](=O)[O-])cc2)cc1` [Disperse Red 1, N-Ethyl-N-(2-hydroxyethyl)-4-(4-nitrophenylazo)aniline], the “Dissolution in CP/DMSO 80/20 mixture” value (2.5 gram powder in 22.5 grams CP/DMSO 80/20, followed by 4 hours at 40° C.) was “completely dissolved”.

For `CC(=O)OCCN(CCC#N)c1ccc(N=Nc2nc3ccc([N+](=O)[O-])cc3s2)cc1` [Disperse Red 177, 2-((2-cyanoethyl)(4-((6-nitrobenzothiazol-2-yl)azo)phenyl)amino)ethyl acetate], the “Dissolution in CP/DMSO 80/20 mixture” value (2.5 grams powder in 22.5 grams CP/DMSO 80/20) was “completely dissolved”.
